Assay results: patent publication US20240238380A1, “COMPOSITION FOR COMBINATION THERAPY COMPRISING GROWTH DIFFERENTIATION FACTOR-15 VARIANT AND GLUCAGON-LIKE PEPTIDE-1 RECEPTOR AGONIST” (YUHAN CORPORATION, priority 2021, published 2024)
Marks after values point to notes of the source that are not given here.

Assays:
Type in all cases: in vivo
[1] = Anti-obesity effect by repeated administration alone and in combination with semaglutide in ob/ob mice (Example 5)
Source text: The ob/ob mouse has a mutation in the leptin gene resulting in leptin deficiency, and are characterized by hyperglycemia, insulin resistance, overeating, and obesity. 5-week-old male ob/ob mice (Jackson Laboratory, USA) were purchased from Raon Bio (Animal Inc., Republic of Korea). The ob/ob mice were acclimatized with normal food (Teklad Certified Irradiated Global 18% Protein Rodent Diet, 2918C, Harlan Co., USA) for 4 weeks, and drug treatment was started at 9 weeks of age. On the day before drug treatment, the mice were grouped based on the body weight of individual mice and random blood glucose levels determined by sampling at the tail vein (n=6 per group). Thereafter, 1 and 10 nmol/kg of FM9-6+Fc_hole alone, 10 and 30 nmol/kg of semaglutide alone, and FM9-6+Fc_hole and semaglutide at doses of 1+10 and 10+10 nmol/kg in combination were subcutaneously administered thereto a total of 10 times every 3 days (Q3D), and body weight and food intake were measured every day or every 3 days during the experimental period (29 days). Here, DPBS (Dulbecco's phosphate-buffered saline, Gibco, USA) was administered for vehicle treatment.

[2] = Pharmacokinetics of long-acting GDF15 fusion protein (dimer) in C57BL/6N mice; settings: 1 mg/kg subcutaneous
Description: 6-week-old male C57BL/6N mice (Orient Bio, Republic of Korea) were purchased from Hallym Lab. Animal Inc., Republic of Korea. Animals were acclimated for 7 days, and on the day of drug administration, the mice were grouped based on the average body weight of individual mice (n=3 per blood sampling time per group). Then, FM9-4+Fc_hole, FM9-6+Fc_hole, FM11-4+Fc_hole, and FM11-6+Fc_hole were subcutaneously administered at 1 mg/kg to each group, and blood samples were collected at 4, 24, 48, 72, 96, 120, 168, and 240 hours after administration. Determination of active GDF15 in serum was achieved by enzyme-linked immunosorbent assay (ELISA), and pharmacokinetic parameters of each long-acting GDF15 fusion protein (dimer) are shown in Table 3 below.

[3] = Anti-obesity effect alone and in combination with semaglutide or tirzepatide in DIO mice (Example 7); settings: for Change in body weight (%) vs. day 0, Maximum efficacy: 4 weeks
Source text: Diet-induced obese (DIO) mice, obtained by feeding mice with high-fat diet, are characterized by obesity, hyperglycemia, and insulin resistance. Diet-induced obese mice (Taconic, USA) resulting from feeding C57BL/6N mice with high-fat food (60 kcal % fat, Research Diets, Cat #D12492, USA) for 8 weeks were purchased from Raon Bio (Animal Inc., Republic of Korea). The diet-induced obese mice were additionally fed with 60% high-fat food for 5 weeks after arrival, and then used in the present test. On the day before drug treatment, the mice were grouped based on the average body weight of individual mice (n=6 per group), after which 0.1 and 1 nmol/kg of FM9-6+Fc_hole alone, 10 nmol/kg of semaglutide (long-acting GLP-1 derivative, SEQ ID NO: 114) and 10 nmol/kg of tirzepatide (long-acting GLP-1/GIP derivative, SEQ ID NO: 117) alone as control drugs, FM9-6+Fc_hole and semaglutide at doses of 0.1+10 and 1+10 nmol/kg in combination, and FM9-6+Fc_hole and tirzepatide at doses of 1+10 nmol/kg in combination were subcutaneously administered thereto every 3 days (Q3D) for a total of 4 weeks. The semaglutide that was used in the test was Ozempic® (semaglutide) from Novo NorDisk, and the tirzepatide that was used was a material synthesized by MedChemExpress (HY-P1731B, USA). Here, DPBS (Dulbecco's phosphate-buffered saline, Gibco, USA) was administered for vehicle treatment, and, during the experimental period (26 days), body weight was measured every day and food intake was measured every 3 days.

[4] = Inhibitory effect on gastric emptying (acetaminophen exposure) in normal rats (Example 8); settings: for AUClast of acetaminophen (μg · min/mL), 3 hr / AUClast of acetaminophen (μg · min/mL), 24 hr / AUClast of acetaminophen (μg · min/mL), 72 hr: rats; for AUClast of acetaminophen (μg · min/mL), 3 hr: acetaminophen 3 hr after dose; for AUClast of acetaminophen (μg · min/mL), 24 hr: acetaminophen 24 hr after dose; for AUClast of acetaminophen (μg · min/mL), 72 hr: acetaminophen 72 hr after dose
Description: Therefore, this example was performed to investigate the inhibitory effect on gastric emptying when the novel long-acting GDF15 fusion protein was administered at the doses equal to the effective dose, higher than the maximum effective dose, or in combination with a GLP-1 receptor agonist to rats. 6-week-old male SD rats (Orient Bio, Republic of Korea) were purchased from Hallym Lab. Animal Inc., Republic of Korea. Animals were acclimated for 7 days. On the day of drug administration, the rats were grouped based on the average body weight of individual rats (n=5 per group) and fasted for at least 6 hours before oral administration of acetaminophen. Then, 0.1, 1, and 10 nmol/kg of FM9-6+Fc_hole, 10 nmol/kg of semaglutide (long-acting GLP-1 derivative, SEQ ID NO: 114), and combination of FM9-6+Fc_hole and semaglutide (1+10 nmol/kg) were subcutaneously administered. The semaglutide was Ozempic® (semaglutide) from Novo NorDisk. As a negative control drug, D-PBS (normal vehicle) was subcutaneously administered, and as a positive control drug, 30 mg/kg of loperamide was orally administered 45 minutes before acetaminophen administration. On 3, 24 and 72 hours after a single dose of the test articles, acetaminophen was orally administered at 100 mg/kg to rats, and blood samples were collected before and at 30, 60, 90, 120 and 150 minutes after acetaminophen administration. The plasma concentration of acetaminophen was analyzed, and the pharmacokinetic profiles and the systemic exposures of acetaminophen were compared to evaluate the inhibitory effect on gastric emptying among the groups.

[5] = Anti-obesity and metabolic parameter effects alone and in combination with large dose of semaglutide in ob/ob mice (Example 6); settings: 1 nmol/kg s.c. Q3D
Source text: 5-week-old male ob/ob mice (Jackson Laboratory, USA) were purchased from Raon Bio (Animal Inc., Republic of Korea). The ob/ob mice were acclimatized with normal chow or normal chow diet (Teklad Certified Irradiated Global 18% Protein Rodent Diet, 2918C, Harlan Co., USA) for 5 weeks, and drug treatment was started at 10 weeks of age. On the day before drug treatment, the mice were grouped based on the body weight of individual mice and random blood glucose levels determined by sampling at the tail vein (n=6 per group). Thereafter, 1 nmol/kg of FM9-6+Fc_hole alone, 30 nmol/kg of semaglutide alone, and FM9-6+Fc_hole and semaglutide in combination (1+30 nmol/kg) were subcutaneously administered thereto a total of 9 times every 3 days (Q3D), and body weight, food intake, and non-fasting blood glucose were measured every day or every 3 days during the experimental period (24 days). Here, DPBS (Dulbecco's phosphate-buffered saline, Gibco, USA) was administered for vehicle treatment.

With “FM9-6 + Fc_hole: long-acting GDF15 fusion protein (dimer): GDF15 ΔN2, S64R, IgG1 Fc_knob/Fc_hole, linker GS(EAAAK)5; SEQ ID NOs: 103 and 47” the “Change in body weight (%) vs. ob/ob control, Maximum efficacy” value ([1]; 1 nmol/kg s.c. Q3D) was −21.49 (On Day 29)**** %, the “Change in body weight (%) vs. ob/ob control, Efficacy on Day 29” value ([1]; 1 nmol/kg s.c. Q3D) was −21.49**** % and the “Change in body weight (%) vs. ob/ob control, Maximum efficacy” value ([1]; 10 nmol/kg s.c. Q3D) was −24.87 (On Day 29)**** %. The “Change in body weight (%) vs. ob/ob control, Efficacy on Day 29” value ([1]; 10 nmol/kg s.c. Q3D) was −24.87 **** %, the “AUClast” value [2] was 939.30872 µg·h/mL and the “CL/F” value [2] was 21.8 mL/day/kg. The “T1/2,app” value [2] was 84.28 h, the “Tmax” value [2] was 24 h and the “Cmax” value ([2]; active GDF15 in serum by ELISA) was 7581.92 ng/mL. The “Change in body weight (%) vs. day 0, Maximum efficacy” value ([3]; 0.1 nmol/kg s.c. Q3D) was −6.75 (On Day 25)** %, the “Change in body weight (%) vs. day 0, Efficacy on Day 26” value ([3]; 0.1 nmol/kg s.c. Q3D) was −6.68** % and the “Change in body weight (%) vs. day 0, Maximum efficacy” value ([3]; 1 nmol/kg s.c. Q3D) was −16.33 (On Day 23)**** %. For the same substance, the “Change in body weight (%) vs. day 0, Efficacy on Day 26” value ([3]; 1 nmol/kg s.c. Q3D) was −16.29**** %, the “AUClast of acetaminophen (μg · min/mL), 3 hr” value (“AUClast … 3 hr” below) ([4]; 0.1 nmol/kg s.c. single dose) was 1873.02 µg·min/mL and the “AUClast of acetaminophen (μg · min/mL), 24 hr” value (from here on “AUClast … 24 hr”) ([4]; 0.1 nmol/kg s.c. single dose) was 2652.42 µg·min/mL. For the same substance, the “AUClast of acetaminophen (μg · min/mL), 72 hr” value (“AUClast … 72 hr” below) ([4]; 0.1 nmol/kg s.c. single dose) was 3054.78 µg·min/mL, the “AUClast … 3 hr” value ([4]; 1 nmol/kg s.c. single dose) was 2615.40 µg·min/mL and the “AUClast … 24 hr” value ([4]; 1 nmol/kg s.c. single dose) was 1878.30 µg·min/mL. The “AUClast … 72 hr” value ([4]; 1 nmol/kg s.c. single dose) was 3526.86 µg·min/mL, the “AUClast … 3 hr” value ([4]; 10 nmol/kg s.c. single dose) was 1497.84 µg·min/mL and the “AUClast … 24 hr” value ([4]; 10 nmol/kg s.c. single dose) was 2385.36 µg·min/mL. The “AUClast … 72 hr” value ([4]; 10 nmol/kg s.c. single dose) was 3100.59 µg·min/mL, the “gastric emptying (in words)” value ([4]; rats, 0.1, 1, and 10 nmol/kg, 3, 24, and 72 hours after administration) was “did not affect gastric emptying” and the “Change in body weight (%) vs. ob/ob control, Efficacy on Day 24” value [5] was −23.37**** %. For the same substance, the “Mean of random blood glucose levels (mg/dL), Efficacy on Day 24” value [5] was 116.2**** mg/dL.
